# According to ChEMBL document CHEMBL4145521, “Regioselective synthesis of 3,4-diaryl-5-unsubstituted isoxazoles, analogues of natural cytostatic combretastatin A4” (Eur J Med Chem, 2018):
# Key:
# Format in all cases: functional
# UO-31 [1] = assay: Cytotoxicity against human UO31 cells assessed as cell growth at 0.01 uM incubated for 48 hrs by sulforhodamine B assay relative to control; conditions: UO-31, 48 h, read-out: Activity
# NCI-H322M = assay: Cytotoxicity against human NCI-H322M cells assessed as cell growth at 10 uM incubated for 48 hrs by sulforhodamine B assay relative to control; conditions: read-out: Activity
# SR = assay: Cytotoxicity against human SR cells assessed as cell growth at 100 uM incubated for 48 hrs by sulforhodamine B assay relative to control; conditions: read-out: Activity
# UO-31 [2] = assay: Cytotoxicity against human UO31 cells assessed as cell growth at 1 uM incubated for 48 hrs by sulforhodamine B assay relative to control; conditions: UO-31, 48 h, read-out: Activity
# SNB-75 = assay: Cytotoxicity against human SNB75 cells assessed as cell growth at 1 uM incubated for 48 hrs by sulforhodamine B assay relative to control; conditions: SNB-75, 48 h, read-out: Activity
# SF-268 = assay: Cytotoxicity against human SF268 cells assessed as cell growth at 100 uM incubated for 48 hrs by sulforhodamine B assay relative to control; conditions: SF-268, 48 h, read-out: Activity
# RXF 393 = assay: Cytotoxicity against human RXF393 cells assessed as cell growth at 0.01 uM incubated for 48 hrs by sulforhodamine B assay relative to control; conditions: RXF 393, 48 h, read-out: Activity
# Hs-578T = assay: Cytotoxicity against human Hs 578T cells assessed as cell growth at 0.1 uM incubated for 48 hrs by sulforhodamine B assay relative to control; conditions: read-out: Activity
# OVCAR-3 [3] = assay: Cytotoxicity against human OVCAR3 cells incubated for 48 hrs by sulforhodamine B assay; conditions: OVCAR-3, 48 h
# HL-60(TB) = assay: Cytotoxicity against human HL-60(TB) cells assessed as cell growth at 100 uM incubated for 48 hrs by sulforhodamine B assay relative to control; conditions: HL-60, 48 h, read-out: Activity
# Malme-3M [4] = assay: Cytotoxicity against human MALME-3M cells incubated for 48 hrs by sulforhodamine B assay
# SK-MEL-2 = assay: Cytotoxicity against human SK-MEL-2 cells assessed as cell growth at 100 uM incubated for 48 hrs by sulforhodamine B assay relative to control; conditions: SK-MEL-2, 48 h, read-out: Activity
# CCRF-CEM = assay: Cytotoxicity against human CCRF-CEM cells assessed as cell growth at 0.1 uM incubated for 48 hrs by sulforhodamine B assay relative to control; conditions: read-out: Activity
# OVCAR-3 [5] = assay: Cytotoxicity against human OVCAR3 cells assessed as cell growth at 1 uM incubated for 48 hrs by sulforhodamine B assay relative to control; conditions: OVCAR-3, 48 h, read-out: Activity
# SN12C [6] = assay: Cytotoxicity against human SN12C cells assessed as cell growth at 1 uM incubated for 48 hrs by sulforhodamine B assay relative to control; conditions: read-out: Activity
# Malme-3M [7] = assay: Cytotoxicity against human MALME-3M cells assessed as cell growth at 100 uM incubated for 48 hrs by sulforhodamine B assay relative to control; conditions: read-out: Activity
# MDA-MB-231 = assay: Cytotoxicity against human MDA-MB-231 cells assessed as cell growth at 1 uM incubated for 48 hrs by sulforhodamine B assay relative to control; conditions: MDA-MB-231, 48 h, read-out: Activity
# OVCAR-4 [8] = assay: Cytotoxicity against human OVCAR4 cells assessed as cell growth at 0.01 uM incubated for 48 hrs by sulforhodamine B assay relative to control; conditions: OVCAR-4, 48 h, read-out: Activity
# PC-3 = assay: Cytotoxicity against human PC3 cells assessed as cell growth at 10 uM incubated for 48 hrs by sulforhodamine B assay relative to control; conditions: PC-3, 48 h, read-out: Activity
# UO-31 [9] = assay: Cytotoxicity against human UO31 cells assessed as cell growth at 10 uM incubated for 48 hrs by sulforhodamine B assay relative to control; conditions: UO-31, 48 h, read-out: Activity
# NCI-H460 = assay: Cytotoxicity against human NCI-H460 cells assessed as cell growth at 0.01 uM incubated for 48 hrs by sulforhodamine B assay relative to control; conditions: NCI-H460, 48 h, read-out: Activity
# U-251 = assay: Cytotoxicity against human U251 cells incubated for 48 hrs by sulforhodamine B assay; conditions: U-251, 48 h
# HT-29 = assay: Cytotoxicity against human HT-29 cells assessed as cell growth at 0.01 uM incubated for 48 hrs by sulforhodamine B assay relative to control; conditions: HT-29, 48 h, read-out: Activity
# SF-539 = assay: Cytotoxicity against human SF539 cells assessed as cell growth at 0.1 uM incubated for 48 hrs by sulforhodamine B assay relative to control; conditions: SF-539, 48 h, read-out: Activity
# ACHN = assay: Cytotoxicity against human ACHN cells assessed as cell growth at 10 uM incubated for 48 hrs by sulforhodamine B assay relative to control; conditions: read-out: Activity
# IGROV-1 = assay: Cytotoxicity against human IGROV1 cells assessed as cell growth at 0.01 uM incubated for 48 hrs by sulforhodamine B assay relative to control; conditions: IGROV-1, 48 h, read-out: Activity
# SN12C [10] = assay: Cytotoxicity against human SN12C cells assessed as cell growth at 0.1 uM incubated for 48 hrs by sulforhodamine B assay relative to control; conditions: read-out: Activity
# OVCAR-3 [11] = assay: Cytotoxicity against human OVCAR3 cells assessed as cell growth at 0.1 uM incubated for 48 hrs by sulforhodamine B assay relative to control; conditions: OVCAR-3, 48 h, read-out: Activity
# 786-0 = assay: Cytotoxicity against human 786-0 cells assessed as cell growth at 1 uM incubated for 48 hrs by sulforhodamine B assay relative to control; conditions: 786-0, 48 h, read-out: Activity
# OVCAR-4 [12] = assay: Cytotoxicity against human OVCAR4 cells assessed as cell growth at 10 uM incubated for 48 hrs by sulforhodamine B assay relative to control; conditions: OVCAR-4, 48 h, read-out: Activity
# EKVX = assay: Cytotoxicity against human EKVX cells assessed as cell growth at 0.1 uM incubated for 48 hrs by sulforhodamine B assay relative to control; conditions: read-out: Activity
# A498 = assay: Cytotoxicity against human A498 cells incubated for 48 hrs by sulforhodamine B assay; conditions: A498, 48 h
# SK-MEL-28 = assay: Cytotoxicity against human SK-MEL-28 cells incubated for 48 hrs by sulforhodamine B assay; conditions: SK-MEL-28, 48 h
# [13] = read-out: LC50 (the source's name)
# [14] = read-out: pLC50 (the source's name) (converted)
compound,measurement,setting,value
COc1ccc(-c2nocc2-c2cc(OC)c(OC)c(OC)c2)cc1,growth at 0.01 µM,UO-31 [1],90%
same,growth at 10 µM,NCI-H322M,35%
same,growth at 100 µM,SR,-7%
same,growth at 1 µM,UO-31 [2],43%
same,growth at 1 µM,SNB-75,4%
same,growth at 100 µM,SF-268,1%
same,growth at 0.01 µM,RXF 393,103%
same,growth at 0.1 µM,Hs-578T,77%
same,GI50,OVCAR-3 [3]; read-out: GI50,0.0386 µM
same,LC50 (50% lethal concentration),OVCAR-3 [3]; read-out: LC50,> 100 µM
same,TGI,OVCAR-3 [3]; read-out: TGI,1.32 µM
same,GI50,OVCAR-3 [3]; read-out: pGI50 (converted),0.0389 µM
same,LC50 (50% lethal concentration),OVCAR-3 [3]; read-out: pLC50 (converted),> 100 µM
same,TGI,OVCAR-3 [3]; read-out: pTGI (converted),1.32 µM
same,growth at 100 µM,HL-60(TB),-15%
same,LC50 (concentration killing 50% of cells),Malme-3M [4]; read-out: LC50,> 100 µM
same,TGI,Malme-3M [4]; read-out: TGI,45.5 µM
same,LC50 (concentration killing 50% of cells),Malme-3M [4]; read-out: pLC50 (converted),> 100 µM
same,TGI,Malme-3M [4]; read-out: pTGI (converted),45.7 µM
same,growth at 100 µM,SK-MEL-2,-8%
same,growth at 0.1 µM,CCRF-CEM,90%
same,growth at 1 µM,OVCAR-3 [5],1%
same,growth at 1 µM,SN12C [6],47%
same,growth at 100 µM,Malme-3M [7],-31%
same,growth at 1 µM,MDA-MB-231,38%
same,growth at 0.01 µM,OVCAR-4 [8],86%
same,growth at 10 µM,PC-3,22%
same,growth at 10 µM,UO-31 [9],23%
same,growth at 0.01 µM,NCI-H460,105%
same,GI50,U-251; read-out: GI50,0.0906 µM
same,CC50,U-251; [13],> 100 µM
same,TGI,U-251; read-out: TGI,65.8 µM
same,GI50,U-251; read-out: pGI50 (converted),0.0912 µM
same,CC50,U-251; [14],> 100 µM
same,TGI,U-251; read-out: pTGI (converted),66.1 µM
same,growth at 0.01 µM,HT-29,98%
same,growth at 0.1 µM,SF-539,65%
same,growth at 10 µM,ACHN,29%
same,growth at 0.01 µM,IGROV-1,97%
same,growth at 0.1 µM,SN12C [10],88%
same,growth at 0.1 µM,OVCAR-3 [11],15%
same,growth at 1 µM,786-0,37%
same,growth at 10 µM,OVCAR-4 [12],32%
same,growth at 0.1 µM,EKVX,49%
same,GI50,A498; read-out: GI50,0.0336 µM
same,LC50,A498; read-out: LC50,> 100 µM
same,TGI,A498; read-out: TGI,0.816 µM
same,GI50,A498; read-out: pGI50 (converted),0.0339 µM
same,LC50,A498; read-out: pLC50 (converted),> 100 µM
same,TGI,A498; read-out: pTGI (converted),0.813 µM
same,GI50,SK-MEL-28; read-out: GI50,4.96 µM
same,CC50,SK-MEL-28; [13],> 100 µM
same,TGI,SK-MEL-28; read-out: TGI,80.8 µM
same,GI50,SK-MEL-28; read-out: pGI50 (converted),5.01 µM
same,CC50,SK-MEL-28; [14],> 100 µM
same,TGI,SK-MEL-28; read-out: pTGI (converted),81.3 µM
